Assay results: ChEMBL document CHEMBL1147737, “4-(3'alpha15'beta-dihydroxy-5'beta-estran-17'beta-yl)furan-2-methyl alcohol: an anti-digoxin agent with a novel mechanism of action” (2006)
The source made the active and inactive calls. The rule behind the calls is not given here.

What was measured:
[1] = organism: Cavia porcellus; experiment: Inhibition of 1 uM digoxin-induced increase in the force of contraction in guinea pig papillary muscle at 10 uM; format: functional
[2] = organism: Cavia porcellus; experiment: Inhibition of digoxin-induced arrhythmias in guinea pig papillary muscle; format: functional
[3] = tested on: Sodium/potassium-transporting ATPase (Cavia porcellus); experiment: Binding affinity to CS receptor on K(+)-ATPase; details: filed as antagonist
[4] = tested on: Sodium/potassium-transporting ATPase (Cavia porcellus); experiment: Binding affinity to CS receptor on Na+-ATPase; details: filed as antagonist
[5] = tested on: NT2; experiment: Inhibition of digoxin-induced transferrin accumulation in NT2 cells; format: functional, cell-based; details: Homo sapiens

Activity [3]: Antagonist
Activity [4]: Antagonist
SMILES: C[C@]12CC[C@H]3[C@@H](CC[C@@H]4C[C@H](O)CC[C@@H]43)[C@@H]1[C@H](O)C[C@@H]2c1coc(CO)c1
Activity [1]: Active
Activity [2]: Active
Activity [5]: Active
